Reference: patent US20260102501A1, “ANTI-CANCER NUCLEAR HORMONE RECEPTOR-TARGETING COMPOUNDS” (Nuvation Bio Inc., priority 2022, published 2026)
Numbering of substitutions follows the chain as printed. Counter-ions that a name gives are not always drawn. Like-named read-outs stand apart in the source and are kept apart here.

Experiments:
IEC6 cells = experiment: Cell viability assay (CellTiterGlo); conditions: Rattus norvegicus, IEC-6, 144 h, read-out: IEC-6 (IC50, nM)
[1] = molecular target: T1, AR (cytosol from LnCaP cells) (Homo sapiens, UniProt P10275, T878A); experiment: AR binding assay (3H-R1881 displacement)
T1 sequence (P10275 1-920 T878A): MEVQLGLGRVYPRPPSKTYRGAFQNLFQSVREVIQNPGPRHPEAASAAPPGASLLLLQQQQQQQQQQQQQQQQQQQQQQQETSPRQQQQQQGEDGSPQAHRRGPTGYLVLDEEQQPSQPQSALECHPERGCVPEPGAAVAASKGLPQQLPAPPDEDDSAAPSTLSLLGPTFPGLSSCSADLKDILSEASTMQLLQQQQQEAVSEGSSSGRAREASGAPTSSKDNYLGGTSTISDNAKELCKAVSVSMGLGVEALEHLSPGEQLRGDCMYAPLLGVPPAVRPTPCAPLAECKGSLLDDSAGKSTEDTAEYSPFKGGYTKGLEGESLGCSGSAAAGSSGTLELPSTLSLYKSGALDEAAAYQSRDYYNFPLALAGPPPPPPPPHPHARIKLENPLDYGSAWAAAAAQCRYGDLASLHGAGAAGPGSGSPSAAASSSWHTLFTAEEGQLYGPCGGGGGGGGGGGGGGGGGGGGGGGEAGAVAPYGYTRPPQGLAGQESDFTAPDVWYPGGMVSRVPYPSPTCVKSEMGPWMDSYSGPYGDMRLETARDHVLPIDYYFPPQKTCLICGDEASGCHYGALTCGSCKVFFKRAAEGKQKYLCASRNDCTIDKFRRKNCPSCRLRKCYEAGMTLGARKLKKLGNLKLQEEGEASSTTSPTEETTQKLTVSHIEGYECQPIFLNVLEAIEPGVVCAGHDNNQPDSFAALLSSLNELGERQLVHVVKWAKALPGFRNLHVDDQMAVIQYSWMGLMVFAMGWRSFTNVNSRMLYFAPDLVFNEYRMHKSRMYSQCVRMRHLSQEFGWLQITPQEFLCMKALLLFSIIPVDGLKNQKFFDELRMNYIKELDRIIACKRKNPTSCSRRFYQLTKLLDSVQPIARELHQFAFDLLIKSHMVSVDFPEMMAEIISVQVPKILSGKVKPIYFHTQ
Experimental: The plate was then centrifuged at 3000 rpm for 30 minutes at 4° C.

T47D cells = experiment: Cell viability assay (CellTiterGlo); assay type: cell-based; conditions: Homo sapiens, 144 h, 6 days incubation, CellTiterGlo, read-out: T47D (IC50)
LNCap cells = experiment: Cell viability assay (CellTiterGlo); assay type: cell-based; conditions: Homo sapiens, 144 h
[2] = molecular target: T2, full-length androgen receptor (HEK293 cells stably expressing) (Homo sapiens, UniProt P10275); experiment: AR antagonism assay (luciferase reporter)
T2 sequence (P10275 1-920): T1 sequence (P10275 1-920 T878A) with A878T
Experimental: AR antagonism assay: To evaluate AR antagonist activity, test compound was added to the assay plate (top dose 10 μM, 3 fold serial dilution, 10 point dose response). HEK293 cells stably expressing the full-length androgen receptor were seeded at a density of 20000 cells/well in the assay plate. The assay plate was then incubated at room temperature for 10 minutes and at 37° C. 5% CO2 for 20 minutes. Testosterone was added to the assay plate at 1 nM final concentration and the assay plate incubated at 37° C., 5% CO2 for 20 h. […] Steady-glo was added to the assay plate and mixed at room temperature for 20 minutes on an orbital shaker, before reading out on the En Vision plate reader.

[3] = molecular target: T3, GR (cytosol from IM-9 cells) (Homo sapiens, UniProt P04150); experiment: GR binding assay (3H-Dexamethasone displacement)
T3 sequence (P04150 1-777): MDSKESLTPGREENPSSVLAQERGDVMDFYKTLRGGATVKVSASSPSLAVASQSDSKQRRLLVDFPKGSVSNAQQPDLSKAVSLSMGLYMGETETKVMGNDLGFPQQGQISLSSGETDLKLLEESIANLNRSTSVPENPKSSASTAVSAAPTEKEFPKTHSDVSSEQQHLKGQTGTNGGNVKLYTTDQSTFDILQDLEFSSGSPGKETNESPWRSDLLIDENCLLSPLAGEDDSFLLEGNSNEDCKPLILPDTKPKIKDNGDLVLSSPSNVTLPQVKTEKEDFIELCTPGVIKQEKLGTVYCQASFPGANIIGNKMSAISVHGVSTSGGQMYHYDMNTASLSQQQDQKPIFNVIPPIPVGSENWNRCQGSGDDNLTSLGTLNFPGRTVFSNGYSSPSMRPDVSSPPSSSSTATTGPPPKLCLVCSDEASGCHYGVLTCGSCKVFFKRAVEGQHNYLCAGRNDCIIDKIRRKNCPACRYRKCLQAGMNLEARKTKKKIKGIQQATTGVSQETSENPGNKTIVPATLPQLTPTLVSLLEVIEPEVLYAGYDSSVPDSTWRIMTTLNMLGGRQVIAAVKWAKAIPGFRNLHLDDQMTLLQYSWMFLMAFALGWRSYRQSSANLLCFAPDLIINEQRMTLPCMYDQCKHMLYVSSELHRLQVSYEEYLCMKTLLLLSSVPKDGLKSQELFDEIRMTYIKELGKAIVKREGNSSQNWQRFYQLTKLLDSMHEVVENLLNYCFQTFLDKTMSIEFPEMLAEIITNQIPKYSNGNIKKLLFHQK

22Rv1 cells = experiment: Cell viability assay (CellTiterGlo); conditions: Homo sapiens, 22Rv1, 144 h, read-out: 22RV1 (IC50, nM)
[4] = molecular target: T4, ligand binding domain of the glucocorticoid receptor (HEK293 cells stably expressing) (Homo sapiens, UniProt P04150); experiment: GR antagonism assay (luciferase reporter)
T4 sequence (P04150 524-758 limits assumed): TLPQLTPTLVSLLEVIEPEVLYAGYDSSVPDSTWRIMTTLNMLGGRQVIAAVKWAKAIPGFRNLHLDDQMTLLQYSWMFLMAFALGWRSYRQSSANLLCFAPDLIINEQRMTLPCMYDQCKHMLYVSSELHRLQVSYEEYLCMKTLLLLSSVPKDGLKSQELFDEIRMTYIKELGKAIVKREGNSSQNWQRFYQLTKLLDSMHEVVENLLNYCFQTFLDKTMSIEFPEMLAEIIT

[5] = 6 days incubation, CellTiterGlo, read-out: LNCap (IC50)

| SMILES | IC50 (IEC6 cells) | IC50 [1] | IC50 (T47D cells) | IC50 (LNCap cells; [5]) | IC50 [2] | IC50 [3] | IC50 (22Rv1 cells) | IC50 [4] | IC50 (LNCap cells; read-out: LNCap (IC50, nM)) |
| --- | --- | --- | --- | --- | --- | --- | --- | --- | --- |
| CC[C@@]1(O)C(=O)OCc2c1cc1n(c2=O)Cc2cc3c(CN4CCN(CC5CCN(c6ccc(C(=O)N[C@H]7CC[C@H](N(C)c8ccc(C#N)c(Cl)c8)CC7)nn6)CC5)CC4)c(OC)ccc3nc2-1 [Compound 40, N-((1r,4r)-4-((3-chloro-4-cyanophenyl)(methyl)amino)cyclohexyl)-6-(4-((4-(((S)-4-ethyl-4-hydroxy-9-methoxy-3,14-dioxo-3,4,12,14-tetrahydro-1H-pyrano[3′,4′:6,7]indolizino[1,2-b]quinolin-10-yl)methyl)piperazin-1-yl)methyl)piperidin-1-yl)pyridazine-3-carboxamide formic acid salt] | 101 to 1000 nM | 10 to 100 nM | 10 to 100 nM | 101 to 1000 nM | > 1000 nM | – | – | – | – |
| CC[C@@]1(O)C(=O)OCc2c1cc1n(c2=O)Cc2c-1nc1cc(F)c(C)c3c1c2[C@@H](N(C)C(=O)COCCC(=O)N1CCC(CN(C)c2ccc([C@H]4C[C@@]5(C)[C@@H](CC[C@]5(OC(C)=O)C(C)=O)[C@@H]5CCC6=CC(=O)CCC6=C54)cc2)CC1)CC3 [Compound 54] | 101 to 1000 nM | – | 101 to 1000 nM | 10 to 100 nM | – | – | – | – | – |
| CC[C@@]1(OC(=O)N2CCN(CCCCCCN(C)c3ccc([C@H]4C[C@@]5(C)[C@@H](CC[C@]5(OC(C)=O)C(C)=O)[C@@H]5CCC6=CC(=O)CCC6=C54)cc3)CC2)C(=O)OCc2c1cc1n(c2=O)Cc2cc3cc(O)ccc3nc2-1 [Compound 57, (S)-4-ethyl-9-hydroxy-3,14-dioxo-3,4,12,14-tetrahydro-1H-pyrano[3′,4′:6,7]indolizino[1,2-b]quinolin-4-yl 4-(6-((4-((8S,11R,13S,14S,17R)-17-acetoxy-17-acetyl-13-methyl-3-oxo-2,3,6,7,8,11,12,13,14,15,16,17-dodecahydro-1H-cyclopenta[a]phenanthren-11-yl)phenyl)(methyl)amino)hexyl)piperazine-1-carboxylate] | > 1000 nM | 10 to 100 nM | 10 to 100 nM | 101 to 1000 nM | – | < 10 nM | – | – | – |
| CC[C@@]1(O)C(=O)OCc2c1cc1n(c2=O)Cc2cc3c(CN(C)C)c(OC(=O)N4CCN(CC5CCN(c6ccc(C(=O)N[C@H]7CC[C@H](N(C)c8ccc(C#N)c(Cl)c8)CC7)nn6)CC5)CC4)ccc3nc2-1 [Compound No. 18, (S)-10-((Dimethylamino)methyl)-4-ethyl-4-hydroxy-3,14-dioxo-3,4,12,14-tetrahydro-1H-pyrano[3′,4′:6,7]indolizino[1,2-b]quinolin-9-yl 4-((1-(6-(((1r,4r)-4-((3-chloro-4-cyanophenyl)(methyl)-amino)cyclohexyl)carbamoyl)pyridazin-3-yl)piperidin-4-yl)methyl)piperazine-1-carboxylate] | 101 to 1000 nM | 10 to 100 nM | – | – | 101 to 1000 nM | 101 to 1000 nM | 10 to 100 nM | 101 to 1000 nM | 10 to 100 nM |
| CC[C@@]1(O)C(=O)OCc2c1cc1n(c2=O)Cc2cc3c(CN(C)C)c(OC(=O)N4C[C@H](C)N(C(=O)C5CCN(c6ccc(C(=O)N[C@H]7CC[C@H](Oc8ccc(C#N)c(Cl)c8C)CC7)nn6)CC5)C[C@H]4C)ccc3nc2-1 [Compound No. 21, (S)-10-((Dimethylamino)methyl)-4-ethyl-4-hydroxy-3,14-dioxo-3,4,12,14-tetrahydro-1H-pyrano[3′,4′:6,7]indolizino[1,2-b]quinolin-9-yl (2R,5S)-4-(1-(6-(((1r,4r)-4-(3-chloro-4-cyano-2-methylphenoxy)cyclohexyl)carbamoyl)pyridazin-3-yl)piperidine-4-carbonyl)-2,5-dimethylpiperazine-1-carboxylate Formate] | > 1000 nM | < 10 nM | – | – | > 1000 nM | > 1000 nM | 101 to 1000 nM | > 1000 nM | 10 to 100 nM |
| CC[C@@]1(O)C(=O)OCc2c1cc1n(c2=O)Cc2cc3c(CN(C)C)c(OC(=O)N4CCN(CCCCCCN(C)C5CCN(c6ccc(C(=O)N[C@H]7CC[C@H](Oc8ccc(C#N)c(Cl)c8C)CC7)nn6)CC5)CC4)ccc3nc2-1 [Compound No. 22, (S)-10-((Dimethylamino)methyl)-4-ethyl-4-hydroxy-3,14-dioxo-3,4,12,14-tetrahydro-1H-pyrano[3′,4′:6,7]indolizino[1,2-b]quinolin-9-yl 4-(6-((1-(6-(((1r,4r)-4-(3-chloro-4-cyano-2-methylphenoxy)-cyclohexyl)carbamoyl)pyridazin-3-yl)piperidin-4-yl)(methyl)amino)hexyl)piperazine-1-carboxylate Formate] | – | < 10 nM | – | – | 101 to 1000 nM | 101 to 1000 nM | 101 to 1000 nM | 101 to 1000 nM | 10 to 100 nM |
